# In the PolyMetriX glass transition set:
# ± gives the standard deviation of the reports.
row,SMILES,glass transition temperature [°C]
1,*C1C(=O)N(c2ccccc2C(=O)OCC)C(=O)C1* (repeat unit),230.00
2,*CC(O)COc1ccc(C(C)(C)c2ccc(OCC(O)COc3cccc(NC(=O)CCCC(=O)Nc4cccc(O*)c4)c3)cc2)cc1 (repeat unit),111.00
3,*CC(OCC)C(C)(C(=O)OC)C(*)(C)C(=O)OC (repeat unit),131.00
4,*Oc1ccc(/N=C/c2ccc(Oc3ccc(C(c4ccc(Oc5ccc(/C=N/c6ccc(Oc7ccc(-c8ccc(*)cc8)cc7)cc6)cc5)cc4)(C(F)(F)F)C(F)(F)F)cc3)cc2)cc1 (repeat unit),128.00
5,*CCN(CCOC(=O)c1ccc([Si](C)(C)c2ccc(C(=O)O*)cc2)cc1)c1ccc(/C=C/c2ccc([N+](=O)[O-])cc2)cc1 (repeat unit),127.00
6,*c1cc(C(=O)OCCCCCCCCCCOc2ccc(-c3ccc(OC(=O)c4ccc(OCC(F)CCCCCC)cc4)cc3)cc2)c(*)s1 (repeat unit),151.00
7,*Nc1ccc(*)cc1OCCCCCCCCCCCC (repeat unit),87.00
8,*Oc1ccc(Oc2ccc(C(=O)c3cccc(NC(=O)CCCCCCCCC(=O)Nc4cccc(C(=O)c5ccc(*)cc5)c4)c3)cc2)cc1 (repeat unit),144.00
9,*O[Si](C)(C=C)O[Si](C)(C=C)O[Si](C)(C)c1ccc([Si](*)(C)C)cc1 (repeat unit),-86.00
10,*CCCNC(=O)CNC(=O)C(Cc1ccccc1)NC(=O)CCCCCCCCC(=O)NC(Cc1ccccc1)C(=O)NCC(=O)NCCCOCCOCCO* (repeat unit),36.00
11,*Nc1ccc(C2(c3ccc(NC(=O)c4ccc(C(*)=O)cc4)cc3)c3ccccc3-c3ccccc32)cc1 (repeat unit),319.00
12,*c1nnc(-c2ccc(Oc3ccc(/C=C/c4ccc(Oc5ccc(*)c6ccccc56)cc4)c4ccccc34)c3ccccc23)o1 (repeat unit),241.00
13,*OC(C)CCCC(C)C(*)=O (repeat unit),-33.00
14,*CC(*)(C)C(=O)OCc1cccc(Cl)c1 (repeat unit),18.2
15,*CC(O)COC(=O)/C=C/C(=O)Oc1ccc(C(C)(C)c2ccc(O*)cc2)cc1 (repeat unit),32.00
16,*c1ccc2c(c1)C(=O)N(c1c(C)cc(C(c3cc(C)c(N4C(=O)c5ccc(C(*)(C(F)(F)F)C(F)(F)F)cc5C4=O)c(C)c3)c3cccc4ccccc34)cc1C)C2=O (repeat unit),314.00
17,*Oc1ccc(Oc2ccc(C(=O)c3ccc(C(=O)c4ccc(*)cc4)cc3)cc2)cc1-c1ccccc1 (repeat unit),166.00
18,*C(=O)OCC(C)(C)COC(=O)N1CCN(*)CC1 (repeat unit),70.00
19,*CCCCCCCOC(=O)Nc1ccc(Cc2ccc(NC(=O)O*)cc2)cc1 (repeat unit),84.00
20,*c1ccc2c(c1)C(=O)N(c1ccc(N3C(=O)c4ccc(-c5c(-c6ccccc6)c(-c6ccccc6)c(-c6ccc(Oc7ccc(-c8c(-c9ccccc9)c(-c9ccccc9)c(*)c(-c9ccccc9)c8-c8ccccc8)cc7)cc6)c(-c6ccccc6)c5-c5ccccc5)cc4C3=O)cc1)C2=O (repeat unit),353.00
21,*c1cccc(C(=O)Nc2ccc(Oc3cccc(Oc4ccc(NC(=O)c5cccc(N6C(=O)c7ccc(-c8cccc9c8C(=O)N(*)C9=O)cc7C6=O)c5)cc4)c3)cc2)c1 (repeat unit),253.00
22,*c1ccc2c(c1)C(=O)N(c1ccc(-c3ccc(N4C(=O)c5ccc(C(*)(C(F)(F)F)C(F)(F)F)cc5C4=O)c(OCCCCCCOc4ccc(/C=C/c5ccc(F)cc5)cc4)c3)cc1OCCCCCCOc1ccc(/C=C/c3ccc(F)cc3)cc1)C2=O (repeat unit),140.00

row,SMILES,glass transition temperature [°C]
1,*CC(C)(C)COC(=O)NC(=O)c1cc(C(=O)NC(=O)O*)cc(C(C)(C)C)c1 (repeat unit),144.00
2,*OC(F)(F)COC(=O)c1cc(OCCCCC)cc(C(=O)OCC(*)(F)F)c1 (repeat unit),14.00
3,*Oc1ccc(Oc2ccc(Oc3cccc(C(=O)Oc4ccc(OC(=O)c5cccc(*)c5)cc4)c3)cc2)cc1 (repeat unit),101.00
4,*C(=O)c1ccc2c(c1)C(=O)N(c1ccc(-c3ccc(N4C(=O)c5ccc(*)cc5C4=O)cc3C)c(C)c1)C2=O (repeat unit),385.00
5,*c1ccc(Oc2cccc(Oc3ccc(N4C(=O)c5cccc(Oc6ccc(Oc7cccc8c7C(=O)N(*)C8=O)cc6)c5C4=O)cc3)c2)cc1 (repeat unit),214.00
6,*c1ccc2c(c1)C(=O)N(c1cc(C(=O)O)cc(N3C(=O)c4ccc(C(*)(C(F)(F)F)C(F)(F)F)cc4C3=O)c1)C2=O (repeat unit),366.50
7,*c1ccc(Oc2ccc(C(c3ccccc3)(c3ccccc3)c3ccc(Oc4ccc(-c5nc(*)nc(-c6ccccc6)n5)cc4)cc3)cc2)cc1 (repeat unit),261.00
8,*CCCCCCCCCN1C(=O)c2ccc(-c3ccc(-c4ccc5c(c4)C(=O)N(*)C5=O)cc3)cc2C1=O (repeat unit),104.00
9,*CC(OC)C(C(=O)OC)C(*)C(=O)OC (repeat unit),59.50
10,*CCCCCCCCNC(=O)CCCCCCCCCCCCCCC(=O)N* (repeat unit),52.00
11,*CC(=O)NCCCCCCNC(=O)COC(=O)CCCCCCCCCCC(=O)O* (repeat unit),0.90
12,*CC(*)(C)C(=O)NC(C)c1ccccc1 (repeat unit),156.50
13,*NC(=O)Nc1ccc(Cc2ccc(NC(=O)Nc3cccc(*)n3)cc2)cc1 (repeat unit),206.50
14,*CCOC(=O)C1CCC(C(=O)O*)CC1 (repeat unit),25.00
15,*Oc1ccc(Oc2ccc(Oc3ccc(NC(=O)c4ccc(-c5ccc(C(=O)Nc6ccc(*)cc6)c(C)c5)cc4C)cc3)cc2)cc1 (repeat unit),200.00
16,*Oc1ccc(C(=O)O)c(C(=O)Nc2ccc(NC(=O)c3cc(*)ccc3C(=O)O)cc2)c1 (repeat unit),166.30
17,*COc1ccc(C(C)(C)c2ccc(Oc3ccc(*)n3-c3ccc([N+](=O)[O-])cc3)cc2)cc1 (repeat unit),76.8
18,*c1ccc(Cc2ccc(-n3c(=O)c4cc5c(=O)n(*)c(=O)c5cc4c3=O)cc2)cc1 (repeat unit),351.00
19,*CC(*)C(=O)OCCC#N (repeat unit),4.00
20,*c1ccc(-c2ccc([Si](*)(CCCC)CCCC)s2)s1 (repeat unit),-10.00
21,*Oc1ccc(/C(=C/c2cc(OC)c(/C=C(/c3ccc(*)cc3)c3ccc(C(F)(F)F)cc3)cc2OC)c2ccc(C(F)(F)F)cc2)cc1 (repeat unit),194.00
22,*CC(*)(Cl)C(=O)OCCC (repeat unit),66.00

row,SMILES,glass transition temperature [°C]
1,*c1ccc(Oc2ccc(S(=O)(=O)c3ccc(Oc4ccc(-c5nc(-c6cccc(-c7nc(*)c(-c8ccccc8)[nH]7)c6)[nH]c5-c5ccccc5)cc4)cc3)cc2)cc1 (repeat unit),292.00
2,*CCC(*)(C)c1ccccc1 (repeat unit),93.00
3,*CC(*)(CC(=O)OC(C)C)C(=O)OC12CC3CC(C)(CC(C)(C3)C1)C2 (repeat unit),158.00
4,*C(=O)OCCCCCCCCCCOC(=O)c1ccc(NC(=O)c2ccc(N3C(=O)c4ccc(*)cc4C3=O)cc2)cc1 (repeat unit),102.00
5,*CCOCCOC(=O)c1ccc(N/C=N/c2ccc(C(=O)O*)cc2)cc1 (repeat unit),77.00
6,*C(=O)c1ccc2c(c1)C(=O)N(c1c(C)cc(C(c3cc(C(F)(F)F)cc(C(F)(F)F)c3)c3cc(C)c(N4C(=O)c5ccc(*)cc5C4=O)c(C)c3)cc1C)C2=O (repeat unit),301.10
7,*Nc1ccc(NC(=O)c2ccc(NC(=O)CCCCCCCCC(=O)Nc3ccc(C(*)=O)cc3)cc2)cc1C(=O)OCCCCCCCCCCCCCCCC (repeat unit),220.00
8,*/C=C/C1CC(*)C2C(=O)N(c3ccc(C)cc3)C(=O)C12 (repeat unit),222.00
9,*C(=O)Nc1ccc(-c2cc(-c3ccccc3)cc(-c3ccc(NC(=O)c4ccc5c(c4)C(=O)N(c4cccc(P(=O)(c6ccccc6)c6cccc(N7C(=O)c8ccc(*)cc8C7=O)c6)c4)C5=O)cc3)n2)cc1 (repeat unit),258.00
10,*O[Si](*)(CCCOCCOCCOCCOCCOCCOC)CCCOCCOCCOCCOCCOCCOC (repeat unit),-69.70
11,*Nc1ccc(-c2ccc(NC(=O)c3cccc(C(*)=O)c3)c(O)c2)cc1O (repeat unit),386.00
12,*Oc1cc(C(C)(C)C)c(Oc2ccc(C(=O)Nc3ccc(C(C)(C)c4ccc(NC(=O)c5ccc(*)cc5)c(C)c4)cc3C)cc2)cc1C(C)(C)C (repeat unit),275.00
13,*Oc1ccc(S(=O)(=O)c2ccc(Oc3ccc(C(=O)c4ccc(*)cc4)cc3)cc2)cc1 (repeat unit),205.00
14,*Nc1cccc(CCc2ccc(NC(=O)c3cccc(C(*)=O)c3)cc2)c1 (repeat unit),203.00
15,*Oc1cc(C(C)(C)c2ccccc2)c(OC(=O)c2cccc(C(*)=O)c2)cc1C(C)(C)c1ccccc1 (repeat unit),180.00
16,*c1cccc(P(=O)(c2ccccc2)c2cccc(-n3c(=O)c4cc5c(=O)n(*)c(=O)c5c(-c5ccc(C(F)(F)F)cc5)c4c3=O)c2)c1 (repeat unit),321.00
17,*CC(*)c1ccc(OCCCC)cc1 (repeat unit) [Poly(p-n-butoxy styrene) ],47 ± 3.3
18,*CC(c1ccccc1)C1C(=O)N(c2ccc(C(C)(C)C)cc2)C(=O)C1* (repeat unit),237.00
19,*Oc1ccc(/N=N/c2ccc(S(=O)(=O)c3ccc(/N=N/c4ccc(OC(=O)c5ccc(/N=N/c6ccc(C(*)=O)cc6)cc5)cc4)cc3[N+](=O)[O-])c([N+](=O)[O-])c2)cc1 (repeat unit),150.00
20,*C(C)C(*)C(=O)OC(C)C (repeat unit),149.00
